By melting point is commonly meant the temperature, or range, at which the solid turns liquid. Turning to `COCCOCc1c(CN(C)CC(O)c2ncccn2)sc2c(=O)c(C(=O)NCc3ccc(Cl)cc3)cn(C)c12` (stereo not drawn) [Example 77, N-(4-Chlorobenzyl)-2-{[(2-hydroxy-2-pyrimidin-2-ylethyl)(methyl)amino]methyl}-3-[(2-methoxyethoxy)methyl]-4-methyl-7-oxo-4,7-dihydrothieno[3,2-b]pyridine-6-carboxamide], the melting point was 146.5 to 147.5 °C.
As for `CN(Cc1sc2c(=O)c(C(=O)NCc3ccc(Cl)cc3)cn(C)c2c1CO)CC(O)c1cnccn1` (stereo not drawn) [Example 84, N-(4-Chlorobenzyl)-3-(hydroxymethyl)-2-{[(2-hydroxy-2-pyrazin-2-ylethyl)(methyl)amino]methyl}-4-methyl-7-oxo-4,7-dihydrothieno[3,2-b]pyridine-6-carboxamide], the figure is 211 to 213 °C; as for `COCCOCc1c(CN(C)CC(O)c2cccc(OC)c2)sc2c(=O)c(C(=O)NCc3ccc(Cl)cc3)cn(C)c12` (stereo not drawn) [Example 73, N-(4-Chlorobenzyl)-2-{[[2-hydroxy-2-(3-methoxyphenyl)ethyl](methyl)amino]methyl}-3-[(2-methoxyethoxy)methyl]-4-methyl-7-oxo-4,7-dihydrothieno[3,2-b]pyridine-6-carboxamide], 135 to 138 °C.
Then `CN(Cc1sc2c(=O)c(C(=O)NCc3ccc(Cl)cc3)cn(C)c2c1CNS(C)(=O)=O)C[C@@H](O)c1ccccn1` [Example 92, N-(4-Chlorobenzyl)-2-{[[(2R)-2-hydroxy-2-pyridin-2-ylethyl](methyl)amino]methyl}-4-methyl-3-{[(methylsulfonyl)amino]methyl}-7oxo-4,7-dihydrothieno[3,2-b]pyridine-6-carboxamide], with 171 to 177 °C (dec.).
Turning to `C=CCOCc1c(CN(C)C[C@@H](O)c2ccccn2)sc2c(=O)c(C(=O)NCc3ccc(Cl)cc3)cn(C)c12` [Example 81, 3-[(Allyloxy)methyl]-N-(4-chlorobenzyl)-2-{[[(2R)-2-hydroxy-2-pyridin-2-ylethyl](methyl)amino]methyl}-4-methyl-7-oxo-4,7-dihydrothieno[3,2-b]pyridine-6-carboxamide], the melting point lay in the range of 125 to 127 °C.
`COc1cccc(C(O)CN(C)Cc2sc3c(=O)c(C(=O)NCc4ccc(Cl)cc4)cn(C)c3c2CO)c1` (stereo not drawn) [Example 86, N-(4-Chlorobenzyl)-2-{[[2-hydroxy-2-(3-methoxyphenyl)ethyl](methyl)amino]methyl}-3-(hydroxymethyl)-4-methyl-7-oxo-4,7-dihydrothieno[3,2-b]pyridine-6-carboxamide] returned a melting point of 165 to 168 °C.
The molecule `COCCOCc1c(CN(C)CC(O)c2c[nH]c3ccccc23)sc2c(=O)c(C(=O)NCc3ccc(Cl)cc3)cn(C)c12` (stereo not drawn) [Example 75, N-(4-Chlorobenzyl)-2-{[[2-hydroxy-2-(1H-indol-3-yl)ethyl](methyl)amino]methyl}-3-[(2-methoxyethoxy)methyl]-4-methyl-7-oxo-4,7-dihydrothieno[3,2-b]pyridine-6-carboxamide] yielded a melting point of 167 to 169 °C.
For the molecule `COCCOCc1c(CN(C)CC(O)c2ccccn2)sc2c(=O)c(C(=O)NCc3ccc(Cl)cc3)cn(C)c12` (stereo not drawn) [Example 76, N-(4-Chlorobenzyl)-2-{[(2-hydroxy-2-pyridin-2-ylethyl)(methyl)amino]methyl}-3-[(2-methoxyethoxy)methyl]-4-methyl-7-oxo-4,7-dihydrothieno[3,2-b]pyridine-6-carboxamide], the melting point was 150.5 to 152 °C.
The molecule `COCCOCc1c(CN(C)C[C@@H](O)c2ccco2)sc2c(=O)c(C(=O)NCc3ccc(Cl)cc3)cn(C)c12` [Example 74, N-(4-Chlorobenzyl)-2-{[[(2R)-2-(2-furyl)-2-hydroxyethyl](methyl)amino]methyl}-3-[(2-methoxyethoxy)methyl]-4-methyl-7-oxo-4,7-dihydrothieno[3,2-b]pyridine-6-carboxamide] gave a melting point of 146 to 147 °C.
Then `CN(Cc1sc2c(=O)c(C(=O)NCc3ccc(Cl)cc3)cn(C)c2c1CO)CC(O)c1ccc(C#N)s1` (stereo not drawn) [Example 85, N-(4-Chlorobenzyl)-2-{[[2-(5-cyanothien-2-yl)-2-hydroxyethyl](methyl)amino]methyl}-3-(hydroxymethyl)-4-methyl-7-oxo-4,7-dihydrothieno[3,2-b]pyridine-6-carboxamide], with 188 to 190 °C; and `COCCOCc1c(CN(C)CC(O)c2ccc(C#N)s2)sc2c(=O)c(C(=O)NCc3ccc(Cl)cc3)cn(C)c12` (stereo not drawn) [Example 80, N-(4-Chlorobenzyl)-2-{[[2-(5-cyanothien-2-yl)-2-hydroxyethyl](methyl)amino]methyl}-3-[(2-methoxyethoxy)methyl]-4-methyl-7-oxo-4,7-dihydrothieno[3,2-b]pyridine-6-carboxamide], with 163 to 164 °C; and `CN(Cc1sc2c(=O)c(C(=O)NCc3ccc(Cl)cc3)cn(C)c2c1COCC[Si](C)(C)C)CC(O)c1cnccn1` (stereo not drawn), with 154.9 to 155.5 °C.
For `CN(Cc1sc2c(=O)c(C(=O)NCc3ccc(Cl)cc3)cn(C)c2c1CN)C[C@@H](O)c1ccccn1` [Example 91, 3-(Aminomethyl)-N-(4-chlorobenzyl)-2-{[[(2R)-2-hydroxy-2-pyridin-2-ylethyl](methyl)amino]methyl}-4-methyl-7-oxo-4,7-dihydrothieno[3,2-b]pyridine-6-carboxamide], the melting point lay within 144 to 148 °C.
Consider `CN(Cc1sc2c(=O)c(C(=O)NCc3ccc(Cl)cc3)cn(C)c2c1CO)CC(O)c1ccc2ccccc2n1` (stereo not drawn) [Example 89, N-(4-Chlorobenzyl)-3-(hydroxymethyl)-2-{[(2-hydroxy-2-quinolin-2-ylethyl)(methyl)amino]methyl}-4-methyl-7-oxo-4,7-dihydrothieno[3,2-b]pyridine-6-carboxamide], for which the melting point fell in the range of 196 to 198 °C.
`COCCOCc1c(CN(C)CC(O)c2cccnc2)sc2c(=O)c(C(=O)NCc3ccc(Cl)cc3)cn(C)c12` (stereo not drawn) [Example 72, N-(4-Chlorobenzyl)-2-{[(2-hydroxy-2-pyridin-3-ylethyl)(methyl)amino]methyl}-3-[(2-methoxyethoxy)methyl]-4-methyl-7-oxo-4,7-dihydrothieno[3,2-b]pyridine-6-carboxamide]: the melting point was 129 to 132 °C.
